Among the data in US5151417A, “3-substituted vinyl cephalosporin derivatives” (Eisai Co., Ltd., priority 1989, dated 1992) are MIC values, retold here.

For orientation: MIC means the least concentration at which growth counts as inhibited.

Format in all cases: cell-based
The subject of assay [1] is Serratia marcescens IID 620. Briefly: In vitro antibacterial activity, Serratia marcescens IID 620 (Table 1). As to conditions: IID620. The procedure:
(§1) Typical compounds out of the compounds described in Examples were classified into some groups. On each compound group, in vitro antibacterial activities were tested by a method known per se in the art.

Assay [2] deals with Klebsiella pneumoniae IID 875. Nature of the assay: In vitro antibacterial activity, Klebsiella pneumoniae IID 875 (Table 1). As to conditions: IID875. The procedure:
as §1

In assay [3] the test system is Escherichia coli MIHJ JC-2. Briefly: In vitro antibacterial activity, Escherichia coli MIHJ JC-2 (Table 1). As to conditions: MIHJJC2. How it is done: as §1
Assay [4] deals with Morganella morganii IID 602. Briefly: In vitro antibacterial activity, Morganella morganii IID 602 (Table 1). As to conditions: IID602. How it is done: as §1
Assay [5] has as its system Staphylococcus aureus 209PJCl. Briefly: In vitro antibacterial activity, Staphylococcus aureus 209PJCl (Table 1). How it is done:
as §1

Assay [6] has as its system Morganella morganii EP-14. Briefly: In vitro antibacterial activity, Morganella morganii EP-14 (Tables 2-6). The note with it: Morganella morganii. How it is done: as §1
Assay [7] relates to Klebsiella pneumoniae EK-6. Briefly: In vitro antibacterial activity, Klebsiella pneumoniae EK-6 (Tables 2-6). The note with it: Klebsiella pneumoniae. How it is done: as §1
Assay [8] deals with Staphylococcus aureus 209-P. Briefly: In vitro antibacterial activity, Staphylococcus aureus 209-P (Tables 2-6). The note with it: Staphylococcus aureus, 209P. The procedure: as §1
A further assay relates to Escherichia coli NIHJ. Briefly: In vitro antibacterial activity, Escherichia coli NIHJ (Tables 2-6). As to conditions: Escherichia coli. The procedure:
as §1

The subject of assay [9] is Serratia marcescens ES-75. Briefly: In vitro antibacterial activity, Serratia marcescens ES-75 (Tables 2-6). As to conditions: Serratia marcescens. The procedure: as §1
The mark [10] stands for this setting: Serratia marcescens IID 620, read-out: MIC.
The mark [11] stands for this setting: Klebsiella pneumoniae IID 875, read-out: MIC.
Setting [12] is: Escherichia coli MIHJ JC-2, read-out: MIC.
Where [13] appears, read: Morganella morganii IID 602, read-out: MIC.
The mark [14] stands for this setting: Staphylococcus aureus 209PJCl, read-out: MIC.
Setting [15] is: EP14, Morganella morganii EP-14, read-out: MIC.
Where [16] appears, read: EK6, Klebsiella pneumoniae EK-6, read-out: MIC.
[17] abbreviates: Staphylococcus aureus 209-P, read-out: MIC.
[18] abbreviates: Escherichia coli NIHJ, read-out: MIC.
Setting [19] is: ES75, Serratia marcescens ES-75, read-out: MIC.

Converted amounts (≈) assume the structure as drawn. Where two headings read alike, the source gives them in different places. A value given as a limit tells only on which side of the number the result lay.

As for `NC(=O)OC/C=C\C1=C(C(=O)[O-])N2C(=O)C(NC(=O)/C(=N\O)c3csc(N)n3)[C@H]2SC1.[Na+]` (stereo partly drawn) [Example 1, Sodium 7-[(Z)-2-(2-aminothiazol-4-yl)-2-hydroxyiminoacetamido]-3-[(Z)-3-carbamoyloxy-1-propenyl]-3-cephem-4-carboxylate], the MIC in [1] (Serratia marcescens) was 0.025 µg/mL; in assay [2] (Klebsiella pneumoniae), 0.012 µg/mL; in [3] (Escherichia coli), 0.025 µg/mL; in assay [4] (Morganella morganii), 0.012 µg/mL; in [5] (Staphylococcus aureus, 209PJCL) it was 0.1 µg/mL.
Regarding `CO/N=C(\C(=O)NC1C(=O)N2C(C(=O)[O-])=C(/C=C\COC(N)=O)CS[C@H]12)c1csc(N)n1.[Na+]` (stereo partly drawn) [Example 7, Sodium 7-[(Z)-2-(2-aminothiazol-4-Yl)-2-methoxyiminoacetamido]-3-[(Z)-3-carbamoyloxy-1-propenyl]-3-cephem-4-carboxylate], the MIC is 0.025 µg/mL in assay [1] (Serratia marcescens); 0.025 µg/mL in [2] (Klebsiella pneumoniae); 0.2 µg/mL in assay [3] (Escherichia coli); 0.025 µg/mL in assay [4] (Morganella morganii); 0.8 µg/mL in assay [5] (Staphylococcus aureus, 209PJCL).
In the case of `CNC(=O)OC/C=C\C1=C(C(=O)[O-])N2C(=O)C(NC(=O)/C(=N\O)c3csc(N)n3)[C@H]2SC1.[Na+]` (stereo partly drawn) [Example 9, Sodium 7-[(Z)-2-(2-aminothiazol-4-yl)-2-hydroxyiminoacetamido]-3-[(Z)-3-(N-methylcarbamoyloxy)-1-propenyl]-3-cephem-4-carboxylate], the MIC is 0.8 µg/mL in assay [1] (Serratia marcescens); 0.012 µg/mL in assay [2] (Klebsiella pneumoniae); 0.05 µg/mL in assay [3] (Escherichia coli); 0.1 µg/mL in [4] (Morganella morganii); 0.1 µg/mL in assay [5] (Staphylococcus aureus, 209PJCL).
Turning to `Nc1nc(/C(=N/O)C(=O)NC2C(=O)N3C(C(=O)O)=C(/C=C/Cn4cnnn4)CSC23)cs1` (stereo not drawn) [Example 11, 7-[2-(2-Aminothiazole)-2-hydroxyiminoacetamido]-3-(3-1H-tetrazolyl-1-propenyl-1-yl)-3-cephem-4-carboxylate], the MIC in assay [1] (setting [10]) was 0.8 µg/mL (≈ 1.68 µM); in assay [2] (setting [11]), 0.05 µg/mL (≈ 0.105 µM); in assay [3] (setting [12]) it was 0.1 µg/mL (≈ 0.209 µM); in assay [4] (setting [13]), 0.05 µg/mL (≈ 0.105 µM); in assay [5] (setting [14]), 0.1 µg/mL (≈ 0.209 µM).
Regarding `Nc1nc(/C(=N/O)C(=O)NC2C(=O)N3C(C(=O)O)=C(/C=C/Cn4ncnn4)CSC23)cs1` (stereo not drawn) [Example 12, 7-[2-(2-Aminothiazole)-2-hydroxyiminoacetamido]-3-(3-2H-tetrazolyl-1-propenyl-1-yl)-3-cephem-4-carboxylic Acid], the MIC in assay [1] (setting [10]) is 0.8 µg/mL (≈ 1.68 µM); in assay [2] (setting [11]) it was 0.1 µg/mL (≈ 0.209 µM); in assay [3] (setting [12]) it was 0.1 µg/mL (≈ 0.209 µM); in assay [4] (setting [13]) it was 0.05 µg/mL (≈ 0.105 µM); in assay [5] (setting [14]), 0.1 µg/mL (≈ 0.209 µM).
`NC(=O)OC/C=C/C1=C(C(=O)[O-])N2C(=O)C(NC(=O)/C(=N\O)c3csc(N)n3)[C@H]2SC1.[Na+]` (stereo partly drawn) [Example 13, Sodium 7-[(Z)-2-(2-aminothiazol-4-yl)-2-hydroxyiminoacetamido]-3-[(E)-3-carbamoyloxy-1-propenyl]-3-cephem-4-carboxylate]: the minimum inhibitory concentration (MIC) is 0.1 µg/mL in assay [1] (Serratia marcescens); 0.025 µg/mL in assay [2] (Klebsiella pneumoniae); 0.1 µg/mL in [3] (Escherichia coli); 0.05 µg/mL in [4] (Morganella morganii); 0.1 µg/mL in assay [5] (Staphylococcus aureus, 209PJCL).
For `CO/N=C(\C(=O)N[C@@H]1C(=O)N2C(C(=O)[O-])=C(/C=C/C3CCC(=O)O3)CS[C@H]12)c1csc(N)n1.[Na+]` (stereo partly drawn) [Example 52, Sodium 7β-[(Z)-2-aminothiazol-4-yl-2-methoxyiminoacetamido]-3-[(E)-2-(5-oxotetrahydrofuran 2-yl)vinyl]-3-cephem-4-carboxylate], the MIC was at most 0.006 µg/mL in [6] (EP14); 0.025 µg/mL in assay [7] (EK6); 0.4 µg/mL in [8]; 0.1 µg/mL against Escherichia coli NIHJ; 0.012 µg/mL in assay [9] (ES75).
Turning to `CO/N=C(\C(=O)N[C@@H]1C(=O)N2C(C(=O)OCOC(=O)C(C)(C)C)=C(/C=C/C3CCC(=O)O3)CS[C@H]12)c1csc(N)n1` (stereo partly drawn) [Example 53, Pivaloyloxymethyl 7β-[(Z)-2-aminothiazol-4-yl-2-methoxyiminoacetamido]-3-[(E)-2-(5 oxotetrahydrofuran-2-yl)vinyl]-3-cephem-4-carboxylate], the MIC in [6] (setting [15]) is 0.025 µg/mL (≈ 0.0411 µM); in assay [7] (setting [16]), 0.025 µg/mL (≈ 0.0411 µM); in [8] (setting [17]), 0.1 µg/mL (≈ 0.165 µM); in the assay on Escherichia coli NIHJ (setting [18]) it was 0.025 µg/mL (≈ 0.0411 µM); in assay [9] (setting [19]), 0.05 µg/mL (≈ 0.0823 µM).
For `CC(C)(C)C(=O)OCOC(=O)C1=C(/C=C\C2CC2)CS[C@@H]2[C@H](NC(=O)/C(=N\O)c3csc(N)n3)C(=O)N12` [Example 58, Pivaloyloxymethyl 7-62-[(Z)-2-(2-aminothiazol-4-yl)-2-hydroxyiminoacetamido]-3-[(Z)-cyclopropylvinyl]-3-cephem-4-carboxylate], the MIC was 0.1 µg/mL (≈ 0.182 µM) in assay [6] (setting [15]); 0.2 µg/mL (≈ 0.364 µM) in assay [7] (setting [16]); 0.1 µg/mL (≈ 0.182 µM) in [8] (setting [17]); 0.4 µg/mL (≈ 0.728 µM) in the assay with Escherichia coli NIHJ (setting [18]); 0.8 µg/mL (≈ 1.46 µM) in assay [9] (setting [19]).
